Laboratory results taken from patent US20100028407A1, “LAYERED BIO-ADHESIVE COMPOSITIONS AND USES THEREOF” (UNIVERSITY OF LOUISVILLE RESEARCH FOUNDATION, INC., priority 2006, published 2010).

Columns and labels:
[1] = Closure of 3 mm corneal wounds by impregnated gelatin sheets, Seidel test under rising intraocular pressure; set-up: species or system porcine; details: about 100-μm gelatin sheet (50% gelatin, 300 mM sucrose) impregnated with rose bengal 1.5 mM (light pipe 3 min), glyceraldehyde 0.2 M (no illumination) or riboflavin 0.1% (UV 370 nm); average±standard deviation
Description: Gelatin blocks were prepared by the following method: Gelatin (300 Blooms, Sigma, St. Louis, Mo.) was dissolved in Minimal Essential Medium (MEM, Gibco, Grand Island, N.Y.), 300 mM sucrose was added and the solution was sterilized with gamma irradiation (2.7 Megarads). Addition of 300 mM sucrose maintained the gelatin sheets in a solid phase at temperatures below 37° C. and allowed the gelatin sheet to melt within minutes at body temperature once the gelatin sheet were placed over the wound. Gelatin blocks were prepared at a concentration of about 50% (weight/volume of MEM), which were firm enough to manipulate during the surgery by the surgeon. These gelatin blocks have rigidity of 300 blooms. Once the gelatin/sucrose solution in MEM was sterilized, the solution was poured into 35-mm tissue culture dish (Falcon #3001, Becton Dickinson, Lincoln Park, N.J.) and allowed to cool for 15 minutes to solidify at room temperature. […]
Rose bengal was activated with an endoilluminator light pipe for 3 minutes. […] After each elevation, the treated wound was checked for the presence of any possible wound leak with the Seidel test, and the highest intraocular pressure at which the wound remained intact was recorded. This experiment was repeated three times on three different occasions and the results were calculated as average±standard deviation. […]

[2] = Attachment strength of photo-melded inner collagenous layer explants in a buoyancy chamber; set-up: species or system human; details: for Attachment strength: 35 mW light at 40 mm
Description: Bruch's membrane explants were harvested from cadaver eyes. RPE-Bruch's membrane-Choroid complexes were dissected out under a microscope; washed with PBS three times and kept in 0.02N ammonium hydroxide for 30 minutes to lyse all cellular components. Three cycles of PBS washing followed by removal of the basal lamina mechanically as described before. Briefly, a full thickness circumferential incision was made posterior to the ora serrata and the anterior segment and vitreous were removed carefully. The posterior pole of each eye cup was inspected visually with direct and retroillumination under a dissecting microscope and globes were discarded if there was any evidence of subretinal blood, previous surgery or any extensive structural or vascular alteration of the posterior segment due to a disease process, such as proliferative diabetic retinopathy or proliferative vitreoretinopathy. The eyecups were put in carbon dioxide-free Media (Gibco) and a scleral incision was made 3 mm from the limbus and extended circumferentially. Four radial incisions were then made and the sclera was peeled away. […] The choroid-Bruch's membrane-RPE complex was then carefully peeled towards the optic disc and removed after trimming its attachment to the optic nerve. Native RPE were removed by bathing the explant with 0.02 N ammonium hydroxide in a 50-mm polystyrene Petri dish (Falcon, Becton Dickinson, Lincoln Park, N.J.) for 20 minutes at room temperature followed by washing three times in phosphate-buffered saline (PBS). The Bruch's membrane explant from the fellow eye was prepared by removing the RPE with 0.02N ammonium hydroxide as described above. The Bruch's membrane explant was then floated in CFM over a 12-18 micron thick hydrophilic polycarbonate-polyvinylpyrrolidone membrane with 0.4 micron pores (Millipore, Bedford, Mass.) with the basal lamina facing towards the membrane. The curled edges were flattened from the choroidal side with fine forceps without touching Bruch's membrane. Four percent agarose (Sigma Chemical Co., St. Louis, Mo.) was poured on the Bruch's membrane-choroid complex from the choroidal side and the tissue was kept at 4° C. for 2-3 minutes to solidify the agarose. The hydrophilic membrane was peeled off along with the basal lamina of the RPE thus exposing the bare inner collagenous layer. 6 mm circular buttons were then trephined from peripheral Bruch's membrane on a Teflon sheet and placed on 4% agarose at 37° C. in non-treated polystyrene wells of a 96 well plate (Corning Costar Corp., Cambridge, Mass.). The agarose solidified within 2-3 minutes at room temperature, thus stabilizing the Bruch's membrane explant. The wells were gently rinsed with PBS three times for 5 minutes, gamma sterilized (20,000 rads) and then stored at 4° C. Explants with exposed ICL were then cut with a 6-mm trephine and stored in sterile PBS after gamma sterilization at 20,000 rads. At the time of use ICL surface was painted with rose bengal (at concentrations as provided in FIG. 2) and two patches were faced to each other at their ICL surface. Extra fluid was removed with a Whatman #30 filter paper and the two surfaces were apposed. […] Exposure time was limited to three minutes not to exceed photo-toxicity thresholds. […] Exposed inner collagenous layers were painted with rose bengal and photo-[…] to each other by photo-exciting rose bengal with a white light source. The light intensity matched the vitrectomy endo illuminator and exposure was limited to 3 minutes to avoid retinal photo-toxicity. […] Attached grafts were kept under 0.21 mN (milliNewtons) of constant traction for 3 days to test the stability of the […] process.

[3] = tested on: photo receptor cells (PRC), choriocapillaris (CC) and RPE cells; experiment: Live-Dead cell viability immediately after photo-melding conditions; assay type: cell-based; details: control PBS
Description: Cellular viability of photo receptor cells (PRC), choriocapillaris (CC) and RPE cells were determined with the Live-Dead assay (Molecular Probes, Portland, Oreg.) to determine the safety of the photo-melding procedure. Human cadaver eyes were obtained from an eye bank. Anterior segments were removed and sensory retina and RPE-CC complex were dissected out. Tissue samples of 6-mm size were cut from each layer and placed in 1.5 mM and 10 mM rose bengal solution. Using similar parameters photo-melding conditions were mimicked. Viability was assessed immediately after exposure. Samples exposed to similar lighting conditions in PBS were taken as control.

PRC, CC and RPE cells = experiment: Live-Dead cell viability after photo-melding of Bruch's membrane patch graft in eyecup followed by ambient light; assay type: cell-based, human; details: 1.5 mM rose bengal; 6 hours ambient light at room temperature
Description: In order to assess the additive effect of subsequent ambient light on cell toxicity anterior segments of three eyecups were removed and a 20-D PMMA PC IOL was sutured into the ciliary sulcus. Sensory retina was carefully lifted off and foveal RPE cells were removed mechanically. Exposed Bruch's membrane was intentionally damaged and a 6-mm Bruch's membrane patch graft photo-melded by photo-exciting 1.5 mM of rose bengal through sensory retina. After the photo-melding procedure, the eyecup was maintained at room temperature for 6 hours exposed to ambient light. At the end of this period cellular viability was assessed with Live-Dead assay. Again, PBS treated eyes served as control.

[4] = TEM and SEM ultrastructure of photo-melded Bruch's membrane explants; details: 0.1 to 20 mM tested
Description: Bruch's membrane explants were photo-melded with varying concentrations of rose bengal, ranging from 0.1 to 20 mM. Transmission electron microscopy (TEM) and scanning electron microscopy (SEM). […] At this concentration, cross linked collagen fibers twisted onto themselves and formed macro bundles. At concentrations higher that 1.5 mM, attenuation of individual collagen fibers and frequent breaks lead to the disruption of collagen framework resulting in hollow spaces at 10 and 20 mM concentrations. Starting from 0.1 mM concentration, the number of electron-dense collagen fibers increased as the concentration of rose bengal increased, possibly due to increased oxidation and subsequent better attraction of positively charged lead and osmium on the collagen fiber. At concentrations higher than 10 mM electron dense haze started to accumulate around the collagen debris.

Compound | Highest intraocular pressure at which the wound remained intact [1] [mmHg] | Attachment strength ([2]; 1.5 mM rose bengal, 3 min) [N/m^2] | Attachment strength ([2]; 5 mM rose bengal, 3 min) [N/m^2] | Attachment strength ([2]; 10 mM rose bengal, 3 min) [N/m^2] | Attachment strength ([2]; 20 mM rose bengal, 3 min) [N/m^2] | Minimum concentration to attain strong photo-melding of human inner collagenous layer grafts ([2]; 3 min, 35 mW light) [mM] | Concentration resulting in photo-melding of exposed human inner collagenous layers ([2]; 3 min exposure to 35 mW of light at 40 millimeters) | Stability of photo-melded grafts under continuous traction ([2]; 72 hours of observation at 37° C., 0.21 mN constant traction) | PRC, CC and RPE cell viability immediately after photo-melding procedure ([3]; 1.5 mM rose bengal) | PRC, CC and RPE cell viability immediately after photo-melding procedure ([3]; 10 mM rose bengal) | PRC, CC and RPE cell viability after photo-melding and ambient light exposure (PRC, CC and RPE cells) | Concentration at which collagen crosslinking reached its maximum [4] [mM]
O=CC(O)CO (stereo not shown) [glyceraldehyde] | 66.1±6.0 |  |  |  |  |  |  |  |  |  |  | 
O=C([O-])c1c(Cl)c(Cl)c(Cl)c(Cl)c1-c1c2cc(I)c(=O)c(I)c-2oc2c(I)c([O-])c(I)cc12.[Na+].[Na+] [rose bengal, tetratodotetrachioro fluorescein disodium salt] | 75.6±5.8 | 14.1 | 14.1 | 5.7 | 2.83 | 1.5 | above 0.1 mM | remained attached | no adverse side effect | no adverse side effect | did not effect the viability | 1.5
